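Assay format: 96-well plates, 48-hour exposure. GI50 marks 50% less growth.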 Activity calls are given as the source filed them. Cut-off read from the data, not from the text of the source: active = GI50 up to about 1.1 µM and inactive = higher.
Columns and labels:
Experiment in all cases: growth of human tumour cells (NCI), 48 h
[1] = system: 786-0
[2] = system: A498
[3] = system: A549
[4] = system: ACHN
[5] = system: BT-549
[6] = system: CCRF-CEM
[7] = system: COLO 205
[8] = system: DU-145
[9] = system: EKVX
[10] = system: HCT-116
[11] = system: HCT-15
[12] = system: HL-60
[13] = system: HOP-62
[14] = system: HOP-92
[15] = system: HT-29
[16] = system: IGROV-1
[17] = system: K562
[18] = system: KM12
[19] = system: M14
[20] = system: MCF7
[21] = system: MDA-MB-435
[22] = system: MDA-N
[23] = system: MOLT-4
[24] = system: NCI-H226
[25] = system: NCI-H23
[26] = system: NCI-H460
[27] = system: NCI/ADR-RES
[28] = system: OVCAR-3
[29] = system: OVCAR-4
[30] = system: OVCAR-5
[31] = system: OVCAR-8
[32] = system: PC-3
[33] = system: RPMI-8226
[34] = system: RXF 393
[35] = system: SF-295
[36] = system: SF-539
[37] = system: SK-MEL-28
[38] = system: SK-MEL-2
[39] = system: SK-OV-3
[40] = system: SN12C
[41] = system: SNB-19
[42] = system: SNB-75
[43] = system: SR
[44] = system: SW-620
[45] = system: T47D
[46] = system: U-251
[47] = system: UACC-257
[48] = system: UACC-62
[49] = system: UO-31
[50] = system: CAKI-1
[51] = system: Hs-578T
[52] = system: LOX IMVI
[53] = system: SF-268
[54] = system: SK-MEL-5

COc1cc(C2c3c(ccc4ccccc34)C(=O)C3CCC(=O)N32)cc(OC)c1O (centres undefined)
GI50 [1]: > 25 µM (inactive) | GI50 [2]: > 25 µM (inactive) | GI50 [3]: > 25 µM (inactive) | GI50 [4]: > 25 µM (inactive) | GI50 [5]: > 25 µM (inactive) | GI50 [6]: 19.9 µM (inactive) | GI50 [7]: > 25 µM (inactive) | GI50 [8]: > 25 µM (inactive) | GI50 [9]: > 25 µM (inactive) | GI50 [10]: > 25 µM (inactive) | GI50 [11]: > 25 µM | GI50 [12]: > 25 µM (inactive) | GI50 [13]: > 25 µM (inactive) | GI50 [14]: > 25 µM (inactive) | GI50 [15]: > 25 µM (inactive) | GI50 [16]: > 25 µM (inactive) | GI50 [17]: > 25 µM (inactive) | GI50 [18]: > 25 µM (inactive) | GI50 [19]: > 25 µM (inactive) | GI50 [20]: > 25 µM (inactive) | GI50 [21]: > 25 µM (inactive) | GI50 [22]: > 25 µM (inactive) | GI50 [23]: > 25 µM (inactive) | GI50 [24]: > 25 µM (inactive) | GI50 [25]: > 25 µM (inactive) | GI50 [26]: > 25 µM (inactive) | GI50 [27]: > 25 µM (inactive) | GI50 [28]: > 25 µM (inactive) | GI50 [29]: > 25 µM (inactive) | GI50 [30]: > 25 µM (inactive) | GI50 [31]: > 25 µM (inactive) | GI50 [32]: > 25 µM (inactive) | GI50 [33]: > 25 µM (inactive) | GI50 [34]: > 25 µM (inactive) | GI50 [35]: > 25 µM (inactive) | GI50 [36]: > 25 µM (inactive) | GI50 [37]: > 25 µM (inactive) | GI50 [38]: > 25 µM (inactive) | GI50 [39]: > 25 µM (inactive) | GI50 [40]: > 25 µM (inactive) | GI50 [41]: > 25 µM (inactive) | GI50 [42]: > 25 µM (inactive) | GI50 [43]: > 25 µM (inactive) | GI50 [44]: > 25 µM (inactive) | GI50 [45]: > 25 µM (inactive) | GI50 [46]: > 25 µM (inactive) | GI50 [47]: > 25 µM (inactive) | GI50 [48]: > 25 µM (inactive) | GI50 [49]: > 25 µM (inactive)

CCN(CC)CCNc1n[n+]([O-])c2cc([N+](=O)[O-])ccc2[n+]1[O-]
GI50 [2]: 1.08 µM (active) | GI50 [3]: 0.678 µM (active) | GI50 [5]: 1.81 µM (inactive) | GI50 [50]: 0.204 µM (active) | GI50 [7]: 0.348 µM (active) | GI50 [9]: 1.9 µM (inactive) | GI50 [10]: 0.318 µM (active) | GI50 [13]: 0.385 µM (active) | GI50 [15]: 0.252 µM (active) | GI50 [51]: 3.11 µM (inactive) | GI50 [16]: 0.132 µM (active) | GI50 [18]: 0.543 µM (active) | GI50 [52]: 0.467 µM (active) | GI50 [19]: 0.423 µM (active) | GI50 [21]: 0.826 µM (active) | GI50 [22]: 0.562 µM (active) | GI50 [24]: 1.87 µM (inactive) | GI50 [27]: 1.11 µM (active) | GI50 [28]: 0.849 µM (active) | GI50 [29]: 0.828 µM (active) | GI50 [30]: 1.47 µM (inactive) | GI50 [31]: 0.391 µM (active) | GI50 [34]: 1.47 µM (inactive) | GI50 [53]: 0.661 µM (active) | GI50 [37]: 5.35 µM (inactive) | GI50 [54]: 0.362 µM (active) | GI50 [39]: 0.729 µM (active) | GI50 [41]: 1.28 µM (inactive) | GI50 [46]: 0.701 µM (active) | GI50 [49]: 1.49 µM (inactive)
